Where two headings read alike, the source gives them in different places. Starred links: 1 amine or outer side, 2 acyl side, 3 side chain; linkers in the order of their positions; H or OH if unused. Non-standard residues stand in square brackets, D forms with d. Residues, ends and D or L forms follow the SMILES beside them. ξ: configuration not given here. Triazole(1,2,4-3-CO,5-NH) = O=C(c1n[nH]c(N[*:1])n1)[*:2]; Phe(4-F) = N[CH](Cc1ccc(F)cc1)C(=O)O; ξNip = O=C(C1CCCN([*:1])C1)[*:2]; Cha = N[CH](CC1CCCCC1)C(=O)O
What was measured:
[1] = test system: platelet aggregation; test: In vitro agonist platelet aggregation assay (gel-filtered platelets); type: cell-based, Human
Method: (§1) In Vitro Agonist Platelet Aggregation Assay/Inhibition of Thrombin-induced Gel-filtered Platelet Aggregation Assay
(§2) The percentage of platelet aggregation is calculated as an increase in light transmission of compound-treated platelet concentrate vs. control-treated platelet concentrate. Human blood is obtained from drug free, normal donors into tubes containing 0.13 M sodium citrate. Platelet rich plasma (PRP) is collected by centrifugation of whole blood at 200×g for 10 min at 25° C. The PRP (5 mL) is gel filtered through Sepharose 2B (bed volume 50 mL), and the platelet count is adjusted to 2×10^7 platelets per sample. The following constituents are added to a siliconized cuvette: concentrated platelet filtrate and Tyrode's buffer (0.14 M NaCl, 0.0027 M KCl, 0.012 M NaHCO3, 0.76 mM Na2HPO4, 0.0055 M glucose, 2 mg/mL BSA and 5.0 mM HEPES @ pH 7.4) in an amount equal to 350 l, 50 l of 20 mM calcium and 50 l of the test compound. Aggregation is monitored in a BIODATA aggregometer for the 3 min following the addition of agonist (thrombin 50 l of 1 unit/mL).

[2] = test system: gel-filtered platelets aggregation induced by thrombin; test: Inhibition of thrombin-induced gel-filtered platelet aggregation assay; type: cell-based; details: Homo sapiens
Method: as §1, §2

[3] = agonist activity, human gel-filtered platelets, Table 1, read-out: EC50 (M), EC50 values for platelet aggregation
[4] = Homo sapiens, read-out: EC50 (M), EC50 values for platelet aggregation
[5] = gel-filtered platelets aggregation induced by thrombin, Table 2, read-out: IC50 (M), inhibition of platelet aggregation

EC50 [1, 3] [M] | IC50 [2, 5] [M] | SMILES | further results
7.5e-07 |  | N=C(N)NCCC[C@H](NC(=O)[C@H](CC1CCCCC1)NC(=O)c1n[nH]c(N)n1)C(=O)N[C@@H](Cc1ccccc1)C(N)=O [Compound 1] | 
 |  | N=C(N)NCCCC(NC(=O)C(Cc1ccccc1)NC(=O)C(CCCNC(=N)N)NC(=O)C(CC1CCCCC1)NC(=O)c1n[nH]c(N)n1)C(N)=O (centres unmarked) [Compound 9] ({Triazole(1,2,4-3-CO,5-NH)}-[Cha]RFR-NH2; configuration not given here) | EC50 [1, 4]: 1.21e-06 M
1.72e-06 |  | N=C(N)NCCCC(NC(=O)C(CC1CCCCC1)NC(=O)c1n[nH]c(NC(=O)C(F)=Cc2ccccc2)n1)C(=O)NC(Cc1ccccc1)C(N)=O (centres unmarked) [Compound 12] | 
 |  | N=C(N)NCCCC(NC(=O)C(CC1CCCCC1)NC(=O)c1n[nH]c(NC(=O)C=Cc2ccc(F)cc2)n1)C(=O)NC(Cc1ccccc1)C(N)=O (centres unmarked) [Compound 26] | EC50 [1, 4]: 7.9e-06 M; IC50 ([2]; read-out: IC50 (M), inhibition of platelet aggregation): 1.3e-05 M
2.6e-05 |  | N=C(N)NCCCC(NC(=O)C(CC1CCCCC1)NC(=O)C1CCCN(C(=O)C(N)Cc2ccc(F)cc2)C1)C(=O)NC(Cc1ccccc1)C(N)=O (centres unmarked) [Compound 32] (H-[Phe(4-F)][ξNip][Cha]RF-NH2; configuration not given here) | 
 | 1.9e-05 | N=C(N)NCCCC(NC(=O)C(CC1CCCCC1)NC(=O)c1n[nH]c(NC(=O)C(=Cc2ccccc2)c2ccccc2)n1)C(=O)NC(Cc1ccccc1)C(N)=O (centres unmarked) [Compound 34] | 
 | 8.4e-06 | Cc1c(S(=O)(=O)N[C@@H](CC2CCCCC2)C(=O)N[C@@H](CCCNC(=N)N)C(=O)N[C@@H](Cc2ccccc2)C(N)=O)sc2ccc(Cl)cc12 [Compound 36] | 
 | 2.1e-05 | N=C(N)NCCC[C@H](NC(=O)[C@H](CC1CCCCC1)NC(=O)c1cc2ccccc2s1)C(=O)N[C@@H](Cc1ccccc1)C(N)=O [Compound 37] | 
4e-06 |  | N=C(N)NCCC[C@H](NC(=O)[C@H](CC1CCCCC1)NC(=O)c1ccc2[nH]cnc2c1)C(=O)N[C@@H](Cc1ccccc1)C(N)=O [Compound 41] | 
 | 1.25e-05 | N=C(N)NCCC[C@H](NC(=O)[C@H](CC1CCCCC1)NS(=O)(=O)c1ccc2ccccc2c1)C(=O)N[C@@H](Cc1ccccc1)C(N)=O [Compound 43] | 
